Here are results for one compound from US20120202840A1, “Use of Flubendazole and Vinca Alkaloids for Treatment of Hematological Diseases” (priority 2009, published 2012).

As a reminder, the IC50 is the point on the concentration scale where inhibition reaches its midpoint. A high value points to lower potency. A word on the LD50: it is the dose expected to kill half of the subjects tested.

“Also recorded” adds a separate entry of the source. Where two headings read alike, the source gives them in different places. Some results are limits rather than exact numbers.

The subject of data set [1] is OCI-AML2 cells. The data set can be described thus: Radioactive glucose uptake assay. The format is cell-based. To be noted: concentrations up to 4.0 μM, 16 hours. On the procedure:
(A) OCI-AML2 cells were incubated with increasing concentrations of flubendazole for 16 h and the uptake of 3H-deoxy-D-glucose was measured as in the materials and methods. Data represent the mean±SD glucose uptake. A representative experiment is shown.
The effect of flubendazole on the uptake of 2-deoxy-D-glucose in OCI-AML2 cells was performed using a radioactive glucose uptake assay as described by Wood et al^27. […] Uptake of 2-deoxy-D-glucose was initiated by the addition of 10 μM 2-deoxy-D-glucose and 1 μCi/mL 2-[^3H]deoxy-D-glucose in the HEPES-buffered saline solution at room temperature. After 5 min of incubation, 2-deoxy-D-glucose uptake was terminated by rinsing the cells three times with a 25 mM ice-cold glucose solution, followed by cell disruption with 0.05 N NaOH. Protein concentration was measured by the modified Bradford protein assay and cell-associated radioactivity was determined by scintillation counting. The mean counts per minute are expressed as picomoles/min/mg protein.

The next data set relates to A549. The data set can be described thus: MTS assay, A549. The conditions noted are these: Homo sapiens, 3 replicates. In kind it is cell-based. The procedure:
Next, whether microtubule inhibition was functionally important for flubendazole's cytotoxicity was determined.
Leukemia (U937, MDAY, CEM, CEM-VBL) and solid tumor cell lines (PPC-1, HeLa) were cultured in RPMI 1640 medium. The epidermoid carcinoma cell lines KB-3-1 and KB-4.0-HTI^23 were grown in Dulbecco's Modified Eagle Medium. The lung carcinoma cell lines A549 and A549.EpoB40 were grown in RPMI with the latter supplemented with 20% fetal calf serum (FCS), and 40 nM epothilone B.^24 Leukemia cell lines OCI-AML2, CEM, and NB4 and all the myeloma cell lines (OPM2, KMS11, JJN3 LP1, H929, L1, KMS12, KSM18 and OCI My5) were maintained in Iscove's Modified Dulbecco's Medium (IMDM). TEX cells were maintained in IMDM, 15% FCS, 1% penicillin-streptomycin, 2 mM L-glutamine, 20 ng/mL SCF, 2 ng/mL IL-3. Unless otherwise noted, all media were supplemented with 10% FCS, 100 units/mL of streptomycin and 100 μg/mL of penicillin (all from Hyclone, Logan, Utah). Cells were incubated in a humidified air atmosphere containing 5% CO2 at 37° C.
Cell growth and viability was measured using the 3-(4,5-dimethylthiazol-2-yl)-5-(3-carboxymethoxyphenyl)-2-(4-sulfophenyl)-2H-tetrazolium inner salt (MTS) reduction assay (Promega, Madison, Wis.) according to the manufacture's protocol and as previously described^25. […] Optical density (OD) was measured at 490 nm.
(In general: Tetrazolium dyes change colour on reduction, which living cells bring about.)

The conditions of data set [2]: rats, up to 150 mg/kg/day for 3 months; cited from earlier work.
For data set [3] the following is noted: rats, mice and guinea-pigs, cited from earlier work.
In the next data set the test system is OPM2 cells. The procedure:
(C) Sub-lethally irradiated SCID mice were injected subcutaneously with OPM2 cells (n=20; 10 per group). […] Tumor volume and body weight was measured over time. After 17 days, mice were sacrificed and tumors were excised, measured and weighted.
Sub-lethally irradiated SCID mice were injected subcutaneously in the left flank with leukemia OCI-AML2 (2.0×10^6) or myeloma OPM2 (1.0×10^7) cells. Mice were then randomly assigned to receive flubendazole (in 0.9% NaCl and 0.01% tween-80) or vehicle control (0.9% NaCl and 0.01% tween-80) intraperitoneally. […] Tumor volumes (tumor length×width^2×0.5236) were monitored daily using calipers. At the end of the experiment (16-18 days), mice were sacrificed, tumors excised and tumor volume and weight measured. All animal studies were carried out according to the regulations of the Canadian Council on Animal Care and with the approval of the local ethics review board.

Data set [4] concerns OCI-AML2 cells. The data set can be described thus: MTS cell growth and viability assay, OCI-AML2. To be noted: OCI-AML2, 72 h, MTS assay. In kind it is cell-based.
Description: (A) OCI-AML2 cells were treated for 72 h with increasing concentrations of benzimidazoles. After incubation, cell growth and viability was measured by the MTS assay. Data represent the mean percentage of viable cells ±SD from a representative experiment.
Cell growth and viability was measured using the 3-(4,5-dimethylthiazol-2-yl)-5-(3-carboxymethoxyphenyl)-2-(4-sulfophenyl)-2H-tetrazolium inner salt (MTS) reduction assay (Promega, Madison, Wis.) according to the manufacture's protocol and as previously described^25. Cells were seeded in 96 well plates and treated with drug for 72 h. Optical density (OD) was measured at 490 nm.
Data set [5] has as its system PPC-1 cells. The data set can be described thus: Cell cycle analysis (PI, flow cytometry), PPC-1. The conditions noted are these: PPC-1, 1.0 μM, 24 h. The format is cell-based. On the procedure:
OCI-AML2 cells (A) or PPC-1 cells (B) were incubated with 1.0 μM flubendazole or buffer control for 24 h. Cells were then stained with PI and the DNA content was measured by flow cytometry. A representative figure is shown.
Cell cycle analysis was performed as described by Mao et al^31. Briefly, OCI-AML2 or PPC-1 cells were harvested, washed with cold PBS and resuspended in PBS and cold absolute ethanol. Cells were then treated with 100 ng/mL of DNase-free RNase A (Invitrogen, Carlsbad, Calif.) at 37° C. for 30 min, washed with cold PBS, resuspended in PBS and incubated with 50 μg/mL of propidium iodine (PI) for 15 min at room temperature in the dark. DNA content was measured by flow cytometry (FACSCalibur, Becton Dickinson, Florida, USA) and analyzed with FlowJo software version 7.0 (TreeStar, Ashland, Oreg.).
In general terms: Flow cytometry measures light scatter and fluorescence of single cells or particles in a stream.

For data set [6], the system named is PPC-1 cells. The data set can be described thus: Mitotic catastrophe (multinucleated cells). In kind it is cell-based. The conditions noted are these: 1.0 μM, 24 h. On the procedure:
(C) PPC-1 cells were treated as above and stained with anti α-tubulin antibody and DAPI, as described in the materials and methods. Cells were imaged by confocal microscopy and the number of multi-nucleated cells was enumerated. Data represent the mean±SD percent of multinucleated cells from a representative experiment *p<0.0001 (unpaired t test). Insert: a representative multi-nucleated cell.
Mitotic catastrophe was measured by enumerating the number of multinucleated cells similar to the method previously described^26. Briefly, cells (5.0×10^5) were fixed and stained as described below. Fields containing 100 cells per treatment group were selected at random and visualized at 20×. A total of 700 cells were scored per treatment condition. A positive score for mitotic catastrophe was given when two or more distinct nuclear lobes were visualized within a single cell.

For data set [7] the following is noted: cited from earlier work.
The mark [8] stands for this setting: OPM2 xenograft, 50 mg/kg daily intraperitoneally for 17 days, vs vehicle, p<0.05.

As to `COC(=O)Nc1nc2ccc(C(=O)c3ccc(F)cc3)cc2[nH]1` [flubendazole], the “uptake of 3H-deoxy-D-glucose” value with OCI-AML2 cells [1] is recorded as “did not alter glucose uptake”. Besides, the 50% inhibitory concentration (IC50) in the data set with A549 amounted to 4.1 ± 1.3 µM. Besides, the toxicity entry in data set [2] was “No toxicity was noted”; in [7] (healthy volunteers, single oral doses up to 2000 mg), “without toxicity”; in [7] (humans, 40-50 mg/kg/day for 10 days, neurocysticercosis) it was “no toxicity from the drug was reported”. The LD50 in [3] (intraperitoneal administration) is over 400 mg/kg; in [3] (oral administration), over 5000 mg/kg. In addition, the tumor growth result with OPM2 cells (setting [8]) was “significantly delayed tumor growth”. Further, the tumor weights entry with OPM2 cells (setting [8]) was “reduced tumor weights”. Also, the “weight loss, behavioral changes or gross organ toxicity” value in the data set on OPM2 cells (mouse, in vivo) is listed as “no evidence of weight loss, behavioral changes or gross organ toxicity”. The “rank of potency in panel of 8 benzimidazoles” value in the data set on OCI-AML2 cells [4] was “most potent”. In addition, in the data set on PPC-1 cells [5], the cell cycle entry is listed as “arrested cells in the G2 phase”. For the same compound, the “number of multi-nucleated cells” value in the data set with PPC-1 cells [6] is on record as “increased the number of multi-nucleated cells”. Moreover, the adverse effects entry in data set [7] (patients, up to 50 mg/kg orally daily for up to 24 months) was “without serious adverse effects; also recorded: without adverse effect”.
